Laboratory results taken from patent publication US5567692A, “9-[(substituted glycyl) amido)]-6-demethyl-6-deoxytetracyclines” (priority 1995, dated 1996).
Values after ≈ are worked out from the molar mass of the structure shown. Structures can show the parent of a compound that is named as a salt. Where two headings read alike, the source gives them in different places.

Legend:
Type in all cases: cell-based
[1] = tested on: S. hemolyticus AVHAH 88-3; test: MIC, agar dilution; details: Streptococcus pyogenes, AVHAH883, 18 h
[2] = tested on: E. coli BAJ9003 IMP MUT; test: microbe, parasite or virus in culture; details: Escherichia coli, BAJ9003IMPMUT, 18 h
[3] = tested on: E. coli MC 4100 Tet sens.; test: MIC, agar dilution; details: Escherichia coli, 18 h
[4] = tested on: E. faecalis ATCC 29212; test: MIC, agar dilution; details: Enterococcus faecalis, ATCC29212, 18 h
[5] = tested on: E. coli J3272 Tet D; test: microbe, parasite or virus in culture; details: Escherichia coli, J3272TETD, 18 h
[6] = tested on: E. coli UBMS 89-1 Tet M; test: microbe, parasite or virus in culture; details: Escherichia coli, UBMS891TETM, 18 h
[7] = tested on: S. aureus IVES 1983; test: MIC, agar dilution; details: Staphylococcus aureus, IVES1983, 18 h
[8] = tested on: S. aureus ATCC 29213; test: MIC, agar dilution; details: Staphylococcus aureus, ATCC29213, 18 h, S. aureus ATCC 29213
[9] = tested on: Ps. aeruginosa ATCC 27853; test: MIC, agar dilution; details: Pseudomonas aeruginosa, ATCC27853, 18 h
[10] = tested on: E. coli ATCC 25922; test: MIC, agar dilution; details: Escherichia coli, ATCC25922, 18 h
[11] = tested on: S. marcescens FPOR 8733; test: MIC, agar dilution; details: Serratia marcescens, FPOR8733, 18 h
[12] = tested on: E. coli UBMS 90-5; test: microbe, parasite or virus in culture; details: Escherichia coli, UBMS905, 18 h, E. coli UBMS 90-5; read-out: MIC
[13] = tested on: E. coli J2175; test: MIC, agar dilution; details: Escherichia coli, 18 h, read-out: MIC
[14] = tested on: E. coli MC 4100 TNIOC Tet B; test: microbe, parasite or virus in culture; details: Escherichia coli, 18 h
[15] = tested on: S. aureus UBMS 90-2 Tet M; test: microbe, parasite or virus in culture; details: Staphylococcus aureus, UBMS902TETM, 18 h
[16] = tested on: E. coli #311 (MP); test: MIC, agar dilution; details: Escherichia coli, 18 h
[17] = tested on: E. coli J3272 Tet C; test: microbe, parasite or virus in culture; details: Escherichia coli, J3272TETC, 18 h
[18] = tested on: S. aureus ROSE (MP); test: MIC, agar dilution; details: Staphylococcus aureus, 18 h
[19] = tested on: S. aureus UBMS 88-7 Tet K; test: microbe, parasite or virus in culture; details: Staphylococcus aureus, UBMS887TETK, 18 h
[20] = tested on: E. coli PRP1 Tet A; test: microbe, parasite or virus in culture; details: Escherichia coli, PRP1TETA, 18 h
[21] = tested on: Enterococcus 12201; test: MIC, agar dilution; details: Enterococcus, 12201, 18 h
[22] = tested on: E. coli UBMS 89-2 Tet sens.; test: MIC, agar dilution; details: Escherichia coli, 18 h
[23] = tested on: E. coli UBMS 88-1 Tet B; test: microbe, parasite or virus in culture; details: Escherichia coli, UBMS881TETB, 18 h
[24] = tested on: S. aureus UBMS 90-1 Tet M; test: microbe, parasite or virus in culture; details: Staphylococcus aureus, UBMS901TETM, 18 h
[25] = tested on: S. aureus SMITH (MP); test: MIC, agar dilution; details: Staphylococcus aureus, 18 h
[26] = tested on: S. aureus UBMS 90-3; test: MIC, agar dilution; details: Staphylococcus aureus, UBMS903, 18 h
[27] = tested on: S. aureus UBMS 88-4; test: MIC, agar dilution; details: Staphylococcus aureus, UBMS884, 18 h
[28] = tested on: S. aureus UBMS 88-5 Tet M; test: microbe, parasite or virus in culture; details: Staphylococcus aureus, UBMS885TETM, 18 h
[29] = tested on: S. aureus NEMC 8769; test: MIC, agar dilution
[30] = tested on: X. maltophilia NEMC 87210; test: MIC, agar dilution; details: Stenotrophomonas maltophilia, NEMC87210, 18 h
[31] = tested on: E. coli UBMS 90-4 Tet M; test: microbe, parasite or virus in culture; details: Escherichia coli, UBMS904TETM, 18 h
[32] = tested on: S. aureus IVES 2943; test: MIC, agar dilution; details: Staphylococcus aureus, IVES2943, 18 h
[33] = Enterococcus 12201, read-out: MIC
[34] = S. aureus SMITH (MP), read-out: MIC
[35] = Staphylococcus aureus, NEMC8769, 18 h
[36] = Ps. aeruginosa ATCC 27853, read-out: MIC
[37] = S. aureus IVES 2943, read-out: MIC
[38] = E. faecalis ATCC 29212, read-out: MIC
[39] = Staphylococcus aureus, NEMC8769, 18 h, read-out: MIC

Compound	MIC [1] [µg/mL]	MIC [2] [µg/mL]	MIC [3] [µg/mL]	MIC [5] [µg/mL]	MIC [6] [µg/mL]	MIC [7] [µg/mL]	MIC [12] [µg/mL]	MIC [13] [µg/mL]	MIC [14] [µg/mL]	MIC [16] [µg/mL]	MIC [17] [µg/mL]	MIC [19] [µg/mL]	MIC [20] [µg/mL]	MIC [22] [µg/mL]	MIC [23] [µg/mL]	MIC [24] [µg/mL]	MIC [27] [µg/mL]	MIC [28] [µg/mL]	MIC [30] [µg/mL]	MIC [31] [µg/mL]	other results
CCNCC(=O)Nc1ccc2c(c1O)C(=O)C1=C(O)[C@]3(O)C(=O)C(C(N)=O)=C(O)[C@@H](N(C)C)C3CC1C2 (stereo partly drawn) [E, [4S-(4alpha,12aalpha)]-4-(Dimethylamino)-9-[[(ethylamino)acetyl]amino]-1,4,4a,5,5a,6,11,12a-octahydro-3,10,12,12a-tetrahydroxy-1,11-dioxo-2-naphthacenecarboxamide dihydrochloride]	1	0.12	0.25	0.25	0.25	8	0.5	0.5	1	0.5	1	8	2	0.5	0.5	0.5	0.5	0.5	8	0.25	MIC [4]: 0.25 µg/mL; MIC [8]: 0.5 µg/mL; MIC [9]: 16 µg/mL; MIC ([10]; read-out: MIC): 0.25 µg/mL; MIC ([11]; read-out: MIC): 4 µg/mL; MIC ([15]; S. aureus UBMS 90-2 Tet M): 0.12 µg/mL; MIC [18]: > 32 µg/mL; MIC [21, 33]: 0.25 µg/mL; MIC [25, 34]: 0.25 µg/mL; MIC ([26]; S. aureus UBMS 90-3): 0.12 µg/mL; MIC [29, 35]: 0.12 µg/mL; MIC [32]: 16 µg/mL
CC1CCN(CC(=O)Nc2ccc3c(c2O)C(=O)C2=C(O)[C@]4(O)C(=O)C(C(N)=O)=C(O)[C@@H](N(C)C)C4CC2C3)CC1 (stereo partly drawn) [A, [7S-(7alpha,10aalpha)]-N-(9-(Aminocarbonyl)-7-(dimethylamino)-5,5a,6,6a,7,10,10a,12-octahydro-1,8,10a,11-tetrahydroxy-10,12-dioxo-2-naphthacenyl]-4-methyl-1-piperidineacetamide dihydrochloride]	2	0.12	0.25	0.25	0.25	1	0.5	0.5	1	0.25	1	1	1	0.5	1	1	0.5	0.5		0.5	MIC [4]: 0.25 µg/mL; MIC ([8]; read-out: MIC): 0.5 µg/mL; MIC [9, 36]: > 32 µg/mL; MIC ([10]; read-out: MIC): 0.25 µg/mL; MIC [11]: 8 µg/mL; MIC [15]: 0.5 µg/mL; MIC ([18]; read-out: MIC): 2 µg/mL; MIC [21, 33]: 0.5 µg/mL; MIC [25, 34]: 0.5 µg/mL; MIC [26]: 0.5 µg/mL; MIC [29]: no growth; MIC ([30]; X. maltophilia NEMC 87210, read-out: MIC): 0.5 µg/mL; MIC [32, 37]: 0.5 µg/mL
CC(C(=O)Nc1ccc2c(c1O)C(=O)C1=C(O)[C@]3(O)C(=O)C(C(N)=O)=C(O)[C@@H](N(C)C)C3CC1C2)N1CCCC1 (stereo partly shown) [P]	4 (≈ 7.21 µM)	0.25 (≈ 0.451 µM)	0.25 (≈ 0.451 µM)	0.5 (≈ 0.902 µM)	0.5 (≈ 0.902 µM)	1 (≈ 1.8 µM)	0.5 (≈ 0.902 µM)	1 (≈ 1.8 µM)	2 (≈ 3.61 µM)	1 (≈ 1.8 µM)	1 (≈ 1.8 µM)	1 (≈ 1.8 µM)	2 (≈ 3.61 µM)	1 (≈ 1.8 µM)	2 (≈ 3.61 µM)	0.5 (≈ 0.902 µM)	0.5 (≈ 0.902 µM)	0.5 (≈ 0.902 µM)	4 (≈ 7.21 µM)	1 (≈ 1.8 µM)	MIC [4, 38]: 0.25 µg/mL (≈ 0.451 µM); MIC [8]: 0.5 µg/mL (≈ 0.902 µM); MIC [9, 36]: > 32 µg/mL; MIC [10]: 1 µg/mL (≈ 1.8 µM); MIC [11]: 16 µg/mL (≈ 28.8 µM); MIC [15]: 0.5 µg/mL (≈ 0.902 µM); MIC ([18]; read-out: MIC): 8 µg/mL (≈ 14.4 µM); MIC [21, 33]: 0.25 µg/mL (≈ 0.451 µM); MIC [25]: 0.5 µg/mL (≈ 0.902 µM); MIC [26]: 0.25 µg/mL (≈ 0.451 µM); MIC [29, 35]: 0.5 µg/mL (≈ 0.902 µM); MIC [32, 37]: 2 µg/mL (≈ 3.61 µM)
CN(C)[C@@H]1C(O)=C(C(N)=O)C(=O)[C@@]2(O)C(O)=C3C(=O)c4c(ccc(NC(=O)CN5CCCCC5)c4O)CC3CC12 (stereo partly drawn) [I, [7S-(7alpha,10aalpha)]-N-9-(Aminocarbonyl)-7-(dimethylamino)-5,5a,6,6a,7,10,10a,12-octahydro-1,8,10a,11-tetrahydroxy-10,12-dioxo-1-piperidineacetamide dihydrochloride]		0.12	0.25	0.5	0.25	1	0.5	0.5	1	0.5	1	0.5	1	0.5	1	0.5	0.5	0.5	0.5	0.5	MIC ([1]; S. hemolyticus AVHAH 88-3, read-out: MIC): 2 µg/mL; MIC [4, 38]: 0.25 µg/mL; MIC ([8]; read-out: MIC): 0.5 µg/mL; MIC [9, 36]: > 32 µg/mL; MIC [10]: 0.5 µg/mL; MIC [11]: 8 µg/mL; MIC [15]: 0.25 µg/mL; MIC ([18]; read-out: MIC): 4 µg/mL; MIC [21]: 0.25 µg/mL; MIC [25]: 0.25 µg/mL; MIC [26]: 0.25 µg/mL; MIC [29, 39]: 0.5 µg/mL; MIC [32]: 1 µg/mL
CC(C(=O)Nc1ccc2c(c1O)C(=O)C1=C(O)[C@]3(O)C(=O)C(C(N)=O)=C(O)[C@@H](N(C)C)C3CC1C2)N(C)C (stereo partly drawn) [B, [4S-(4alpha,12aalpha)]-4-(Dimethylamino)-9-[[2-(dimethylamino)-1-oxopropyl]amino]-1,4,4a,5,5a,6,11,12a-octahydro-3,10,12,12a-tetrahydroxy-1,11-dioxo-2-naphthacenecarboxamide dihydrochloride]	1	0.25	0.25	0.5	0.5		0.5	1	0.5	0.5	1	1	2	1	1	0.5	0.25	0.5	2	0.5	MIC [4, 38]: 0.25 µg/mL; MIC ([7]; S. aureus IVES 1983, read-out: MIC): 1 µg/mL; MIC ([8]; read-out: MIC): 0.25 µg/mL; MIC [9, 36]: 32 µg/mL; MIC [10]: 0.5 µg/mL; MIC [11]: 8 µg/mL; MIC [15]: 0.25 µg/mL; MIC [18]: 4 µg/mL; MIC [21]: 0.25 µg/mL; MIC [25]: 0.25 µg/mL; MIC ([26]; S. aureus UBMS 90-3, read-out: MIC): 0.06 µg/mL; MIC [29, 39]: 0.06 µg/mL; MIC [32, 37]: 1 µg/mL
